Experimental data reported in patent publication US4053580A, “Microsealed pharmaceutical delivery device” (G. D. Searle & Co., priority 1975, dated 1977).
Each block holds one compound with its values, some of them ahead of it.

Tests used:
Type in all cases: physicochemical
[1] = Release of pharmaceutical from microsealed silicone delivery device (release rate and kinetics); settings: device: 2 parts drug in 2 parts 40% PEG (MW 380-420) in water, Silastic 382 matrix, Silastic tubing
Excerpt: amount of pharmaceutical released decreases with time and Q - t
Those skilled in the pharmaceutical arts will know how to determine toxic levels of a given pharmaceutical, and the minimum effective dose. With this information a proper dosage form can be prepared by measuring the in vivo rate of elution of a given pharmaceutical by standard analytic tecniques e.g. spectroscopic or radio immunoassay analysis. In vitro diffusion of the pharmaceutical from a delivery device may be determined by the methods of Chien and Lambert, J. Pharm. Sci., 63, 365 (1974) or by methods described in U.S. Pat. No. 3,710,795.
A biologically acceptable silicone polymer matrix containing a pharmaceutical in a hydrophilic solvent system is prepared as follows: […] of ethynodiol diacetate at 37° C. by vigorous agitation for 10 minutes. To this mixture is added 6 parts of liquid silicone polymer of the formula [drawing 5] sold as Silastic® Medical Grade 382 Elastomer by Dow-Corning and this combination is stirred with a mechanical mixer at 1000 rpm for 28 minutes. 0.015 Parts of a cross-linking agent (stannous octanoate is added to the combination and stirring is continued for 2 minutes. The combination is placed in a silicone rubber tubing (I.D. 3.18mm, 0.D. 6.35mm sold by Dow-Corning as Medical Grade Silastic Tubing No. 601-365). This tubing is a silicone polymer of the formula The system is allowed to cross-link for 1 hour and then the tubing is sectioned to provide pharmaceutical delivery devices with the desired amount of pharmaceutical. The ends of the sections may be sealed or left open and additional openings may be made in the walls of the tubing to facilitate higher but still constant rates of release. This device releases 315.6 mcg/cm^2 /day of ethynodiol diacetate. Replacement of the ethynodiol diacetate with 2 parts of one of the following pharmaceuticals provides the indicated release rate: […]

[2] = as above; settings: for Kinetics of release: Q - t = partition controlled, constant release independent of time
[3] = Solubility of pharmaceutical (Cl) in hydrophilic solvent system at 37° C, 24 h shaking; settings: organic solvent or mixture
Procedure: Solubility of a pharmaceutical (Cl) is measured by constant shaking for 24 hours an excess amount of powdered pharmaceutical in 10 ml. of a hydrophilic solvent system at 37° C. The solution is filtered and the content of the pharmaceutical is measured.
(§1) Table I is illustrative of the relation between Cl, Kb, release rate, and kinetics of release of 17α-ethynyl-4-estrene-3β,17β-diol 3,17-diacetate (ethynodiol diacetate) in a hydrophilic solvent system of polyethylene glycol having a molecular weight of about 400.

[4] = Partition coefficient (Kb) between hydrophilic solvent system and silicone polymer matrix
Procedure: Partition coefficient K(b) is measured by immersing a known surface area of biologically acceptable silicone polymer matrix material in a solution of the pharmaceutical in the hydrophilic solvent system with constant shaking for 24 hours and then measuring the amount of pharmaceutical remaining in the solvent system.
Ci = initial concentration of pharmaceutical
Cl = Equilibrium concentration of pharmaceutical
as §1

Structure (SMILES): CC(=O)O[C@]1(C(C)=O)CC[C@H]2[C@@H]3CCC4=CC(=O)CC[C@@H]4[C@H]3[C@@H](C)C[C@@]21C [17α-acetoxy-11β-methyl-19-norpregn-4-ene-3,20-dione]
- Release rate [1]: 51.89 mcg/cm^2 /day

Structure (SMILES): C#C[C@]1(OC(C)=O)CC[C@H]2[C@@H]3CCC4=C[C@@H](OC(C)=O)CC[C@@H]4[C@H]3CC[C@@]21C [ethynodiol diacetate, 17α-ethynyl-4-estrene-3β,17β-diol 3,17-diacetate]
- Release rate time dependence with alternative solvent systems ([2]; 1,3-butanediol, propylene glycol, PEG 4000, PEG 6000, Solketal, Medical Fluid 360 solvent systems): independent of time
- Release from devices with alternative solvent systems ([2]; 1,3-butanediol, propylene glycol, PEG 4000, PEG 6000, Solketal, Medical Fluid 360 solvent systems, prepared as for PEG 400): 150 - 275 mcg/cm^2
- Rate of Pharmaceutical Release ([2]; 30% PEG 400): 297.8 gm/10^6 cm^2/day
- Kinetics of release ([2]; 30% PEG 400): Q - t
- Rate of Pharmaceutical Release ([2]; 50% PEG 400): 315.6 gm/10^6 cm^2/day
- Kinetics of release ([2]; 50% PEG 400): Q - t
- Rate of Pharmaceutical Release ([2]; 60% PEG 400): 319.4 gm/10^6 cm^2/day
- Kinetics of release ([2]; 60% PEG 400): Q - t
- Rate of Pharmaceutical Release ([2]; 80% PEG 400): 1203 gm/10^6 cm^2/day^1/2
- Rate of Pharmaceutical Release ([2]; 100% PEG 400): 1095 gm/10^6 cm^2/day^1/2
- Release rate from silicone rubber implantates, relation to time ([2]; in the absence of microsealed compartments containing a suitable hydrophilic solvent): porportional to the square root of time (T^1/2)
- Release rate [1]: 315.6 mcg/cm^2 /day
- solubility at 24 h ([3]; 30% PEG 400, 37° C): 64.6 µg/mL
- solubility at 24 h ([3]; 50% PEG 400, 37° C): 156 µg/mL
- solubility at 24 h ([3]; 60% PEG 400, 37° C): 437 µg/mL
- solubility at 24 h ([3]; 80% PEG 400, 37° C): 4460 µg/mL
- solubility at 24 h ([3]; 100% PEG 400, 37° C): 45600 µg/mL
- Kb/Cl ([4]; 30% PEG 400): 0.355 mL/µg
- Kb/Cl ([4]; 50% PEG 400): 0.061 mL/µg
- Kb/Cl ([4]; 60% PEG 400): 0.0078 mL/µg
- Kb/Cl ([4]; 80% PEG 400): 7.4e-05 mL/µg
- Kb/Cl ([4]; 100% PEG 400): 7e-07 mL/µg

Structure (SMILES): COC(=O)C1CC2=CC(=O)CCC2(C)C2CCC3(C)C(CCC34CCC(=O)O4)C12 (stereo not drawn) [17-hydroxy-7β-methoxycarbonyl-3-oxo-17α-pregn-4-ene-21-carboxylic acid γ-lactone]
- Release rate [1]: 63.08 mcg/cm^2 /day

Structure (SMILES): Cc1ncc([N+](=O)[O-])n1CCO [metronidazole]
- Release rate [1]: 4.23 mcg/cm^2 /day

More lines, now with the values ahead:

- Release rate [1]: 55.1 mcg/cm^2 /day
Structure (SMILES): CC(=O)OCC(=O)[C@H]1CC[C@H]2[C@@H]3CCC4=CC(=O)CC[C@]4(C)[C@H]3CC[C@]12C [Desoxycorticosterone acetate]

- Release rate [1]: 18.25 mcg/cm^2 /day
Structure (SMILES): CC(=O)S[C@@H]1CC2=CC(=O)CC[C@]2(C)[C@H]2CC[C@@]3(C)[C@@H](CC[C@@]34CCC(=O)O4)[C@H]12 [7α-acetylthio-17α-(2-carboxyethyl)-17β-hydroxyandrost-4-en-3-one lactone]
